From patent publication US12024510B2, “Pyrazolopyridine-diamides, their use as insecticide and processes for preparing the same” (PI INDUSTRIES LTD., priority 2017, dated 2024)

System: Plutella xylostella
Assay: whole plant or invertebrate
Type: in vivo
Details: foliar, cabbage leaf dip, second instar larvae, dead and moribund combined, 72 h after release
Experimental: Test Solutions were Prepared According to the Procedure Described Herein Below (500 PPM):
• 1. Eppendorf Vortex mixer (ThermoMixer C) and 1.5 mL Eppendorf tubes • 2. Zirconia (Zirconium-Yttrium) beads having diameter of 0.8 to 1.0 mm • 3. Microscope • 4. Beaker 100 mL • 5. Micro-pipette Reagents: • 1. Surfactant Solution • 2. De-mineralized (DM) Water • 1. Weigh 10 mg of the compound of the present invention to be tested in an Eppendorf Tube. • 2. Add 200 mg of the Surfactant Solution into the tube. • 3. Add 600 mg of Zirconia beads into the above mixture. • 4. Fix the tube in Eppendorf Vortex mixer and start vortexing at 2000 rpm. • 5. Mix on Vortex mixer for 30 minutes. After 30 minutes, observe the sample over a microscope at 400× resolution. • 6. If the Maximum particle size is more than 5 μm or average particle size is more than 2 μm or the particle size distribution is uneven, continue vortexing for another 30 minutes and again check the particle size using the microscope. Continue till the average particle size is below 2 microns. • 7. When the required particle size is achieved, add 1.0 mL DM water into the tube, close the cap, shake the tube thoroughly and transfer the contents, along with the beads, into a beaker. • 8. To rinse the tube, add another 1.0 mL of DM water into the tube, close the cap, shake well and transfer this into the same beaker. • 9. Repeat Step no. 8 one more time so that the tube is rinsed well and the compound of the present invention to be tested is transferred to the beaker. • 10. Add 16.8 mL of DM water into the beaker and stir well. • 11. The homogeneous dispersion can then be decanted into a glass vial, immediately, to separate the Zirconia beads. • 12. Immediately use this sample for biological testing. • 13. Further dilutions can be prepared by taking appropriate quantity of the aliquot of Step 10, immediately after stirring, and diluting as per requirement. The sample solution must be well mixed just before biological testing.
Leaf dip method was used for screening, wherein the required quantity of the compounds were weighed and dissolved in the test solution into the tube and vortex at 2000 rpm with Zirconia beads for 90 min for proper mixing, then mixed with 0.01% Triton-X solution to get the desired test concentration. Cabbage leaves were dipped in the solution for 10 seconds, shade dried for 20 min and then transferred to bioassay trays. Single second instar larva was released into each cell and the tray was covered with lid. The bio-assay trays were kept under laboratory conditions at a temperature of 25° C. and relative humidity of 70%. Observations on dead, moribund and live larvae were recorded at 72 h after the release. Percent mortality was calculated by combining dead and moribund larvae. The following compound num.

| Structure (SMILES) | mortality at 300 ppm |
| --- | --- |
| CCCNC(=O)c1c(NC(=O)c2cc(OCC(F)(F)F)nn2-c2ncccc2Cl)c(C)cc2ccnn12 [Compound 11, 6-(1-(3-chloropyridin-2-yl)-3-(2,2,2-trifluoroethoxy)-1H-pyrazole-5-carboxamido)-5-methyl-N-propylpyrazolo[1,5-a]pyridine-7-carboxamide] | > 70% |
| Cc1cc2ccnn2c(C(=O)N2CC(F)(F)C2)c1NC(=O)c1cc(Br)nn1-c1ncccc1Cl [Compound 23, 3-bromo-1-(3-chloropyridin-2-yl)-N-(7-(3,3-difluoroazetidine-1-carbonyl)-5-methylpyrazolo[1,5-a]pyridin-6-yl)-1H-pyrazole-5-carboxamide] | > 70% |
| Cc1cc2ccnn2c(C(=O)N2CCC2)c1NC(=O)c1cc(Br)nn1-c1ncccc1Cl [Compound 34, N-(7-(azetidine-1-carbonyl)-5-methylpyrazolo[1,5-a]pyridin-6-yl)-3-bromo-1-(3-chloropyridin-2-yl)-1H-pyrazole-5-carboxamide] | > 70% |
| COc1cc(C(=O)Nc2c(C)cc3ccnn3c2C(=O)N2CC(F)(F)C2)n(-c2ncccc2Cl)n1 [Compound 39, 1-(3-chloropyridin-2-yl)-N-(7-(3,3-difluoroazetidine-1-carbonyl)-5-methylpyrazolo[1,5-a]pyridin-6-yl)-3-methoxy-1H-pyrazole-5-carboxamide] | > 70% |
| C#CCNC(=O)c1c(NC(=O)c2cc(OCC(F)(F)F)nn2-c2ncccc2Cl)c(C)cc2ccnn12 [Compound 48, 6-(1-(3-chloropyridin-2-yl)-3-(2,2,2-trifluoroethoxy)-1H-pyrazole-5-carboxamido)-5-methyl-N-(prop-2-yn-1-yl)pyrazolo[1,5-a]pyridine-7-carboxamide] | > 70% |
| CNC(=O)c1c(NC(=O)c2cc(Oc3cc(C(F)(F)F)nn3C)nn2-c2ncccc2Cl)c(C)cc2ccnn12 [Compound 69, 6-(1-(3-chloropyridin-2-yl)-3-((1-methyl-3-(trifluoromethyl)-1H-pyrazol-5-yl)oxy)-1H-pyrazole-5-carboxamido)-N,5-dimethylpyrazolo[1,5-a]pyridine-7-carboxamide] | > 70% |
| CCNC(=O)c1c(NC(=O)c2cc(Oc3cc(C(F)(F)F)nn3C)nn2-c2ncccc2Cl)c(C)cc2ccnn12 [Compound 70, 6-(1-(3-chloropyridin-2-yl)-3-((1-methyl-3-(trifluoromethyl)-1H-pyrazol-5-yl)oxy)-1H-pyrazole-5-carboxamido)-N-ethyl-5-methylpyrazolo[1,5-a]pyridine-7-carboxamide] | > 70% |
| Cc1cc2ccnn2c(C(=O)NC2CC2)c1NC(=O)c1cc(Oc2cc(C(F)(F)F)nn2C)nn1-c1ncccc1Cl [Compound 79, 6-(1-(3-chloropyridin-2-yl)-3-((1-methyl-3-(trifluoromethyl)-1H-pyrazol-5-yl)oxy)-1H-pyrazole-5-carboxamido)-N-cyclopropyl-5-methylpyrazolo[1,5-a]pyridine-7-carboxamide] | > 70% |
| Cc1cc2ccnn2c(C(=O)NCC2CC2)c1NC(=O)c1cc(Oc2cc(C(F)(F)F)nn2C)nn1-c1ncccc1Cl [Compound 80, 6-(1-(3-chloropyridin-2-yl)-3-((1-methyl-3-(trifluoromethyl)-1H-pyrazol-5-yl)oxy)-1H-pyrazole-5-carboxamido)-N-(cyclopropylmethyl)-5-methylpyrazolo[1,5-a]pyridine-7-carboxamide] | > 70% |
| COCCNC(=O)c1c(NC(=O)c2cc(Br)nn2-c2ncccc2Cl)c(Br)cc2ccnn12 [Compound 88, 5-bromo-6-(3-bromo-1-(3-chloropyridin-2-yl)-1H-pyrazole-5-carboxamido)-N-(2-methoxyethyl)pyrazolo[1,5-a]pyridine-7-carboxamide] | > 70% |
| CCCNC(=O)c1c(NC(=O)c2cc(OC3CSC3)nn2-c2ncccc2Cl)c(C)cc2ccnn12 [Compound 103, 6-(1-(3-chloropyridin-2-yl)-3-(thietan-3-yloxy)-1H-pyrazole-5-carboxamido)-5-methyl-N-propylpyrazolo[1,5-a]pyridine-7-carboxamide] | > 70% |
| CNC(=O)c1c(NC(=O)c2cc(C(F)(F)F)nn2-c2ncccc2Cl)c(Br)cc2ccnn12 [Compound 104, 5-bromo-6-(1-(3-chloropyridin-2-yl)-3-(trifluoromethyl)-1H-pyrazole-5-carboxamido)-N-methylpyrazolo[1,5-a]pyridine-7-carboxamide] | > 70% |
| Cc1cc2ccnn2c(C(=O)NOC(C)C)c1NC(=O)c1cc(Br)nn1-c1ncccc1Cl [Compound 105, 6-(3-bromo-1-(3-chloropyridin-2-yl)-1H-pyrazole-5-carboxamido)-N-isopropoxy-5-methylpyrazolo[1,5-a]pyridine-7-carboxamide] | > 70% |
| COc1cc(C(=O)Nc2c(C)cc3ccnn3c2C(N)=O)n(-c2ncccc2Cl)n1 [Compound 111, 6-(1-(3-chloropyridin-2-yl)-3-methoxy-1H-pyrazole-5-carboxamido)-5-methylpyrazolo[1,5-a]pyridine-7-carboxamide] | > 70% |
| CCONC(=O)c1c(NC(=O)c2cc(OC)nn2-c2ncccc2Cl)c(C)cc2ccnn12 [Compound 112, 6-(1-(3-chloropyridin-2-yl)-3-methoxy-1H-pyrazole-5-carboxamido)-N-ethoxy-5-methylpyrazolo[1,5-a]pyridine-7-carboxamide] | > 70% |
| COc1cc(C(=O)Nc2c(C)cc3ccnn3c2C(=O)NOC(C)C)n(-c2ncccc2Cl)n1 [Compound 113, 6-(1-(3-chloropyridin-2-yl)-3-methoxy-1H-pyrazole-5-carboxamido)-N-isopropoxy-5-methylpyrazolo[1,5-a]pyridine-7-carboxamide] | > 70% |
| COCCNC(=O)c1c(NC(=O)c2cc(C(F)(F)F)nn2-c2ncccc2Cl)c(C)cc2ccnn12 [Compound 118, 6-(1-(3-chloropyridin-2-yl)-3-(trifluoromethyl)-1H-pyrazole-5-carboxamido)-N-(2-methoxyethyl)-5-methylpyrazolo[1,5-a]pyridine-7-carboxamide] | > 70% |
| Cc1cc2ccnn2c(C(=O)NC2CONC2=O)c1NC(=O)c1cc(C(F)(F)F)nn1-c1ncccc1Cl (stereo not drawn) [Compound 128, 6-(1-(3-chloropyridin-2-yl)-3-(trifluoromethyl)-1H-pyrazole-5-carboxamido)-5-methyl-N-(3-oxoisoxazolidin-4-yl)pyrazolo[1,5-a]pyridine-7-carboxamide] | > 70% |
| O=C(Nc1c(Br)cc2ccnn2c1C(=O)NC1CONC1=O)c1cc(C(F)(F)F)nn1-c1ncccc1Cl (stereo not drawn) [Compound 129, 5-bromo-6-(1-(3-chloropyridin-2-yl)-3-(trifluoromethyl)-1H-pyrazole-5-carboxamido)-N-(3-oxoisoxazolidin-4-yl)pyrazolo[1,5-a]pyridine-7-carboxamide] | > 70% |
| CCNC(=O)c1c(NC(=O)c2cc(OC3CSC3)nn2-c2ncccc2Cl)c(C)cc2ccnn12 [Compound 144, 6-(1-(3-chloropyridin-2-yl)-3-(thietan-3-yloxy)-1H-pyrazole-5-carboxamido)-N-ethyl-5-methylpyrazolo[1,5-a]pyridine-7-carboxamide] | > 70% |
| COc1cc(C(=O)Nc2c(Cl)cc3ccnn3c2C(=O)NCC#N)n(-c2ncccc2Cl)n1 [Compound 149, 5-chloro-6-(1-(3-chloropyridin-2-yl)-3-methoxy-1H-pyrazole-5-carboxamido)-N-(cyanomethyl)pyrazolo[1,5-a]pyridine-7-carboxamide] | > 70% |
| CONC(=O)c1c(NC(=O)c2cc(OC)nn2-c2ncccc2Cl)c(Cl)cc2ccnn12 [Compound 150, 5-chloro-6-(1-(3-chloropyridin-2-yl)-3-methoxy-1H-pyrazole-5-carboxamido)-N-methoxypyrazolo[1,5-a]pyridine-7-carboxamide] | > 70% |
| CONC(=O)c1c(NC(=O)c2cc(Br)nn2-c2ncccc2Cl)ccc2ccnn12 [Compound 163, 6-(3-bromo-1-(3-chloropyridin-2-yl)-1H-pyrazole-5-carboxamido)-N-methoxypyrazolo[1,5-a]pyridine-7-carboxamide] | > 70% |
| CCC(CC)NC(=O)c1c(NC(=O)c2cc(Br)nn2-c2ncccc2Cl)c(C)cc2ccnn12 [Compound 185, 6-(3-bromo-1-(3-chloropyridin-2-yl)-1H-pyrazole-5-carboxamido)-5-methyl-N-(pentan-3-yl)pyrazolo[1,5-a]pyridine-7-carboxamide] | > 70% |
